Numbers after ± are expanded uncertainties.
Experiments:
[1] = wn = mass fraction of the nth substance listed; conditions: 298.15 K, 101 kPa, Liquid; for viscosity: Capillary tube (Ostwald / Ubbelohde) method; for speed of sound: Sing-around technique in a fixed-path interferometer; for mass density: Vibrating tube method
[2] = refractive index (Na D-line) (dimensionless); wn = mass fraction of the nth substance listed; conditions: 298.15 K, 101 kPa, Liquid, Standard Abbe refractometry

O=[N+]([O-])[O-].O=[N+]([O-])[O-].[Ba+2] [barium dinitrate] + O
Conditions | mass density, [1] [kg/m3] | refractive index, [2] | speed of sound, [1] [m/s] | viscosity, [1] [mPa·s]
w1 = 0.01 | 997.37 ± 0.05 | 1.3327 ± 0.0008 | 1512.7 ± 1.2 | 0.904 ± 0.008
w1 = 0.03 | 998.48 ± 0.05 | 1.3334 ± 0.0008 | 1516.4 ± 1.2 | 0.91 ± 0.008
w1 = 0.05 | 999.56 ± 0.05 | 1.3342 ± 0.0008 | 1519.3 ± 1.2 | 0.916 ± 0.008

Reference: the NIST ThermoML archive (doi:10.1016/j.tca.2013.06.017)
